Reference: patent US8609654B1, “Compounds for enzyme inhibition” (Onyx Therapeutics, Inc., priority 2006, dated 2013)

Experiments:
[1] = tested on: rheumatoid arthritis induced by immunization with bovine type II collagen in CFA; assay: Mouse model of RA by immunization with bovine type II collagen; type: in vivo, female DBA/1 mice
Description: The effect administration of Compound 14 on disease progress was also assessed in an alternative mouse model for RA, in which disease develops 21-30 days after immunization with bovine type II collagen (Kagari et al., J Immunol 169:1459-1466, 2002). […] Again, disease progression was measured using a total clinical score of paw condition per mouse.

[2] = tested on: rheumatoid arthritis induced by anti-type II collagen antibodies and LPS; assay: Arthrogenic antibody mouse model of rheumatoid arthritis (anti-collagen antibodies and LPS); type: in vivo, female Balb/c mice
Description: The effect of Compound 14 on disease progression was assessed in 2 mouse models of rheumatoid arthritis (FIG. 2). […] Rhematoid arthritis was induced on Day 0 in female Balb/c mice by IV administration of anti-type II collagen antibodies followed 3 days later by LPS. […] Per mouse, each paw was measured for disease using a scale of 0-4 and a total clinical score was assigned for each animal (max score=16). Administration of 6 mg/kg of Compound 14 reduced disease severity by ˜50% while the 20 mg/kg dose level inhibited the disease by greater than 75%.

[3] = tested on: chymotryptic-like activity of isolated 20S constitutive proteasome vs immunoproteasome; assay: Enzyme kinetic assay with isolated 20S proteasome preps, EC50 ratio of CT-L activity (20S ratio); type: biochemical; details: constitutive proteasome to immunoproteasome, >1 = prefers immunoproteasome
Source text: Enzyme kinetic assays such as those disclosed in U.S. application Ser. No. 09/569,748, Example 2 and Stein et al., Biochem. (1996), 35, 3899-3908 use isolated 20S proteasome preps with greater than 90% constitutive proteasome subunits or immunoproteasome subunits. The inhibitory preference of the molecule is then based on the EC50 ratio of the chymotryptic-like activity of the constitutive proteasome to that of the immunoproteasome (20S ratio).

[4] = molecular target: T1, 26S proteasome CT-L activity in lysate of HT29 (constitutive) vs Sultan/Thp1 (immunoproteasome) cells (Homo sapiens, UniProt P28062+P28074); assay: CT-L EC50 with 26S proteasome in cell lysate (Lysate ratio); type: biochemical; details: HT29 lysate to Sultan/Thp1 lysate, >1 = prefers immunoproteasome
T1 construct: using 26S proteasome in the context of a cell lysate; endogenous in cells; host or cells: HT29 lysate (constitutive); Sultan or THP1 lysate (immunoproteasome)
T1 sequence (P28074 60-263): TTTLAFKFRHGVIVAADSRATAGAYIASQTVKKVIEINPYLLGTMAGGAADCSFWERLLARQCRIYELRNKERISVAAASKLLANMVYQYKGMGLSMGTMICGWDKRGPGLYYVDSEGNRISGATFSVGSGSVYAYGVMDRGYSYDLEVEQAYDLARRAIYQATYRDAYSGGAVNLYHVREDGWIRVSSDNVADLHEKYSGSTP
T1 sequence (P28062 73-276): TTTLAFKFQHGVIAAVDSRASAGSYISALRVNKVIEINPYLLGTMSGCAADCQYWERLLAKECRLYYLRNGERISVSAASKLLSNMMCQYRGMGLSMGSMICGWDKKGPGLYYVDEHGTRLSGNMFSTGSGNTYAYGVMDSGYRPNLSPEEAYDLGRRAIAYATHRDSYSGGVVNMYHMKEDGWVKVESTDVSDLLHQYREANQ
Description: Alternatively, the CT-L EC50 of a compound can be determined using 26S proteasome in the context of a cell lysate. Compound is added to lysate generated from cells that either predominantly express constitutive proteasome (e.g., HT29) or immunoproteasome (e.g., THP1). Again, the inhibitory preference is then based on the EC50 ratio (Lysate ratio).

[5] = molecular target: T2, 20S proteasome subunit β5 vs immunoproteasome subunit LMP7 in RPMI-8226 cells (Homo sapiens, UniProt P28062+P28074); assay: ELISA-based active site assay in RPMI-8226 cells (ELISA ratio); type: cell-based; details: EC50 ratio with β5 antibody to LMP7 antibody, RPMI-8226 cells; >1 = prefers immunoproteasome
T2 construct: Cells expressing approximately equivalent amounts of immuno- and constitutive proteasome (e.g., RPMI-8226) are treated with test compound; endogenous in cells; host or cells: RPMI-8226 multiple myeloma cells
T2 sequence (P28074 60-263): T1 sequence (P28074 60-263)
T2 sequence (P28062 73-276): T1 sequence (P28062 73-276)
Description: Lastly, a more cell-based approach can be utilized. Cells expressing approximately equivalent amounts of immuno- and constitutive proteasome (e.g., RPMI-8226) are treated with test compound, followed by the method for determining the activity of a proteasome inhibitor as described in application Ser. No. 11/254,541. The ratio of the EC50 generated in the ELISA-based assay using β5 antibody and LMP7 antibodies (ELISA ratio) provides the basis for determining the inhibitory preference of the test compound. […] In all three assays, a ratio of less than one denotes the molecule inhibits the CT-L activity of the constitutive proteasome better than that of the immunoproteasome. Ratios greater than one signifies the molecule inhibits chymotrypsin-like activity of the immunoproteasome better than that of the constitutive proteasome.
A suitable ELISA assay may be found in U.S. patent application Ser. No. 11/254,541, incorporated herein in its entirety. Briefly, RPMI-8226 cells were treated with 0.1 nM to 1 μM of proteasome Inhibitor B. The samples were then washed with phosphate-buffered saline (PBS) and lysed in hypotonic buffer (20 mM Tris pH 8, 5 mM EDTA) (Tris-HCl and EDTA are available from Teknova, Inc., Hollister, Calif.). Cellular debris was removed by centrifugation at 14,000 rpm in a microfuge (4° C.) for 2 min. The supernatant was transferred to a fresh tube, snap frozen in liquid nitrogen and stored at −80° C. After thawing on ice, the samples (30 μl for assays run in triplicate) were treated with 500 nM of Inhibitor A for 1 hr at room temperature. Following treatment with Inhibitor A, the lysate was denatured by addition of seven volumes of 1% SDS (210 μl) (available from Bio-Rad, Hercules, Calif.) and heating at 99° C. with vigorous shaking for 5 min. The sample was allowed to cool and two volumes (60 μl) of 10% Triton X-100 (available from Bio-Rad, Hercules, Calif.) was added.
Streptavidin sepharose beads (6.5 μl/well) (available from Amersham Biosciences, Piscataway, N.J.), were washed three times with 1 ml PBS (available from Mediatech, Inc., Herndon, Va.) in a microcentrifuge tube. The beads were resuspended in ELISA wash/block buffer (PBS+0.1% Tween 20+1% bovine serum albumin; 20 μl/well) and transferred to the wells of a 96 well filter plate (BSA is available from Sigma, St. Louis, Mo.; Tween is available from Calbiochem, San Diego, Calif.). Denatured whole blood or PBMC lysates that were treated with Inhibitor 3 were added to the filter plate wells containing the streptavidin sepharose beads (each sample assayed in triplicate) and incubated for 1 hr at room temperature with shaking (MultiScreen-DV Opaque Plates with low protein binding durapore membrane; available from Millipore, Billerica, Mass.). The unbound material was removed by gentle filtration and the beads were washed six times with ELISA wash/block buffer (200 μl each).
Primary antibody to human 20S proteasome subunit (35 (rabbit polyclonal antibody; available from Biomol, Plymouth Meeting, Pa.) or human 20S immunoproteasome subunit LMP7 (rabbit polyclonal antibody; available from Affinity BioReagents, Golden, Colo.) was diluted 1:1000 in ELISA wash/block buffer, added to the beads (100 μl/well), and incubated for 1 hr at room temperature on an orbital shaker. The beads were washed six times with ELISA wash/block buffer with gentle filtration. Secondary antibody treatment (1:5000) and washing are as described for primary antibody (goat anti-rabbit antibody-HRP conjugate; available from Biosource, Camarillo, Calif.). The beads were then resuspended in 100 μl chemiluminescent detection reagent (Super Signal Pico Chemiluminescent Substrate™; available from Pierce, Rockford, Ill.) and luminescence was read on a Tecan plate reader. […]

| SMILES | effect on disease progression ([1]; 6 or 20 mg/kg beginning after first signs of disease, total clinical score) | dose dependence of reduction of disease severity ([1]; 6 vs 20 mg/kg) | reduction of disease severity ([2]; 6 mg/kg IV 3 times/week for 2 weeks from Day 4) [%] | inhibition of the disease ([2]; 20 mg/kg IV 3 times/week for 2 weeks from Day 4) | effect on disease progression ([2]; IV 3 times/week for 2 weeks from Day 4, total clinical score (max 16)) | 20 S ratio (const:immuno) [3] | Lysate ratio (HT29:Sultan/Thp1) [4] | Elisa ratio (beta5:LMP7) [5] |
| --- | --- | --- | --- | --- | --- | --- | --- | --- |
| COc1ccc(C[C@H](NC(=O)[C@H](C)NC(=O)CN2CCOCC2)C(=O)N[C@@H](Cc2ccccc2)C(=O)[C@@]2(C)CO2)cc1 [Compound 14] | inhibited disease progression as compared to vehicle control | enhanced reduction of disease severity | ~50 | greater than 75% | inhibited disease progression in a dose dependent manner |  |  |  |
| CC1(C(=O)[C@H](Cc2ccccc2)NC(=O)[C@H](Cc2ccccc2)NC(=O)[C@@H](Cc2ccccc2)NC(=O)OCc2ccccc2)CO1 (some centres unmarked) |  |  |  |  |  | >5.0 | >2.0 | >3.0 |
| C[C@@H](NC(=O)OCc1ccccc1)C(=O)N[C@@H](Cc1c[nH]c2ccccc12)C(=O)N[C@@H](Cc1ccc(O)cc1)C(=O)C1(C)CO1 (some centres unmarked) |  |  |  |  |  | >5.0 | >5.0 | >3.0 |
| C[C@@H](NC(=O)OCc1ccccc1)C(=O)N[C@@H](Cc1c[nH]c2ccccc12)C(=O)N[C@@H](Cc1ccccc1)C(=O)C1(C)CO1 (some centres unmarked) |  |  |  |  |  | >5.0 | >5.0 | >5.0 |
| CC(C)CC(NC(=O)OCc1ccccc1)C(=O)N[C@@H](CC(C)C)C(=O)N[C@@H](Cc1ccccc1)C(=O)C1(C)CO1 (some centres unmarked) |  |  |  |  |  | <0.5 | <1.0 | <0.5 |
| CC1(C(=O)[C@H](Cc2ccccc2)NC(=O)[C@H](Cc2c[nH]c3ccccc23)NC(=O)[C@H](CCC(N)=O)NC(=O)OCc2ccccc2)CO1 (some centres unmarked) |  |  |  |  |  | >1.0 | >3.0 | >1.0 |
| CC(C)C(NC(=O)OCc1ccccc1)C(=O)N[C@@H](Cc1c[nH]c2ccccc12)C(=O)N[C@@H](Cc1ccccc1)C(=O)C1(C)CO1 (some centres unmarked) |  |  |  |  |  | >5.0 | >5.0 | >5.0 |
| CC1(C(=O)[C@H](Cc2ccccc2)NC(=O)[C@H](Cc2ccccc2)NC(=O)CNC(=O)OCc2ccccc2)CO1 (some centres unmarked) |  |  |  |  |  | >3.0 | >5.0 | >2.0 |
| CC(NC(=O)OCc1ccccc1)C(=O)N[C@@H](Cc1ccccc1)C(=O)N[C@@H](Cc1ccc(O)cc1)C(=O)C1(C)CO1 (some centres unmarked) |  |  |  |  |  | >5.0 | >3.0 | >3.0 |
| CC(NC(=O)OCc1ccccc1)C(=O)N[C@@H](Cc1c[nH]c2ccccc12)C(=O)N[C@@H](Cc1ccccc1)C(=O)C1(C)CO1 (some centres unmarked) |  |  |  |  |  | >1.0 | >2.0 | >5.0 |
| C[C@H](NC(=O)OCc1ccccc1)C(=O)N[C@@H](Cc1ccc(C(C)(C)C)cc1)C(=O)N[C@@H](Cc1ccccc1)C(=O)C1(C)CO1 (some centres unmarked) |  |  |  |  |  | >2.0 | >2.0 | >3.0 |
| CC1(C(=O)[C@H](Cc2ccccc2)NC(=O)[C@H](Cc2c[nH]c3ccccc23)NC(=O)C(CC(=O)O)NC(=O)OCc2ccccc2)CO1 (some centres unmarked) |  |  |  |  |  | >3.0 | >3.0 | >2.0 |
